# Laboratory results as given in BindingDB's records for doi:10.1021/acs.jmedchem.9b00963 (Hong Kong Polytechnic University, 2019).
# What was measured:
# [1] = Inhibition of BCRP (unknown origin) transfected in HEK293/R2 cells assessed as reversal of topotecan resistance after 5 days by MTS/PMS assay
# [2] = Inhibition of BCRP in human MCF7/MX100 cells assessed as reversal of topotecan resistance after 5 days by MTS/PMS assay
# [3] = Inhibition of P-gp (unknown origin) expressed in human LCC6MDR cells assessed as reversal of paclitaxel resistance after 5 days by MTS/PMS assay
# [4] = Inhibition of BCRP (unknown origin) transfected in human HEK293/R2 cells assessed as potentiation of topotecan-induced cytotoxicity measured as topotecan IC50 at 1 uM (Rvb = 531.5 +/- 180 nM)
# [5] = Inhibition of BCRP (unknown origin) expressed in human HEK293/R2 cells assessed as potentiation of mitoxantrone-induced cytotoxicity after 5 days by MTS/PMS assay
# [6] = Inhibition of P-gp (unknown origin) expressed in human LCC6MDR cells assessed as potentiation of mitoxantrone-induced cytotoxicity after 5 days by MTS/PMS assay
# [7] = Inhibition of MDR in human LCC6MDR cells assessed as reduction in cell viability after 5 days by MTS/PMS assay
# [8] = Inhibition of MRP1 in human 2008/MRP1 cells assessed as reduction in cell viability after 5 days by MTS/PMS assay
SMILES,EC50 [1] [nM],EC50 [2] [nM],EC50 [3] [nM],IC50 [4] [nM],EC50 [5] [nM],EC50 [6] [nM],IC50 [7] [nM],IC50 [8] [nM]
COC(=O)c1cccc(COc2c(-c3ccc(OCCOCCn4cc(-c5cccc(-c6cn(CCOCCOc7ccc(-c8oc9ccccc9c(=O)c8OCc8cccc(C(=O)OC)c8)cc7)nn6)c5)nn4)cc3)oc3ccccc3c2=O)c1,2.2,1.1,> 1000,25,11,> 2000,–,–
COc1ccc2c3c([nH]c2c1)[C@H](CC(C)C)N1C(=O)[C@H](CCC(=O)OC(C)(C)C)NC(=O)[C@@H]1C3 [Ko143],–,–,1060,–,–,943,–,–
O=C1c2c(O)ccc(O)c2C(=O)c2c(NCCNCCO)ccc(NCCNCCO)c21 [SMR000058480],–,–,–,–,–,–,1500,28

# Second part, led by results:
EC50 [1] [nM],EC50 [2] [nM],EC50 [3] [nM],SMILES,IC50 [4] [nM],EC50 [5] [nM],EC50 [6] [nM],IC50 [7] [nM],IC50 [8] [nM]
5.3,3.3,> 1000,COC(=O)c1cccc(COc2c(-c3ccc(OCCOCCn4cc(CN(Cc5ccccc5)Cc5cn(CCOCCOc6ccc(-c7oc8ccccc8c(=O)c7OCc7cccc(C(=O)OC)c7)cc6)nn5)nn4)cc3)oc3ccccc3c2=O)c1,15,–,–,–,–
6.1,2.4,> 1000,COC(=O)c1cccc(COc2c(-c3ccc(OCCOCCn4cc(CCCc5cn(CCOCCOc6ccc(-c7oc8ccccc8c(=O)c7OCc7cccc(C(=O)OC)c7)cc6)nn5)nn4)cc3)oc3ccccc3c2=O)c1,19,–,–,–,–
4.2,2.1,> 1000,COC(=O)c1cccc(COc2c(-c3ccc(OCCOCCn4cc(COCc5cn(CCOCCOc6ccc(-c7oc8ccccc8c(=O)c7OCc7cccc(C(=O)OC)c7)cc6)nn5)nn4)cc3)oc3ccccc3c2=O)c1,20,–,–,–,–
